ChEMBL document CHEMBL5252609, “Design, synthesis, and antitumor evaluation of morpholine substituted bisnaphthalimides as DNA targeting agents” (Bioorg Med Chem Lett, 2023)
Calls of active or inactive are those of the source. The rule behind the calls is not given here.

Key:
CNE-2 = experiment: Antiproliferative activity against human CNE-2 cells assessed as cell growth inhibition by MTT assay; type: functional, cell-based
Homo sapiens [1] = organism: Homo sapiens; experiment: Binding affinity to pBR322 DNA (unknown origin) assessed as induced retardation of DNA migration at 20 to 100 uM by gel electrophoresis assay; details: dose 20-100 µM
A2780 = experiment: Antiproliferative activity against human A2780 cells assessed as cell growth inhibition by MTT assay; type: functional, cell-based
MGC-803 [2] = experiment: Antiproliferative activity against human MGC-803 cells assessed as cell growth inhibition by MTT assay; type: functional, cell-based
[3] = biological target: T1, DNA topoisomerase 1 (Homo sapiens) (UniProt P11387); experiment: Inhibition of human DNA topoisomerase 1 assessed as reduction in pBR322 DNA relaxation upto 100 uM by gel electrophoresis method
T1 sequence (whole entry): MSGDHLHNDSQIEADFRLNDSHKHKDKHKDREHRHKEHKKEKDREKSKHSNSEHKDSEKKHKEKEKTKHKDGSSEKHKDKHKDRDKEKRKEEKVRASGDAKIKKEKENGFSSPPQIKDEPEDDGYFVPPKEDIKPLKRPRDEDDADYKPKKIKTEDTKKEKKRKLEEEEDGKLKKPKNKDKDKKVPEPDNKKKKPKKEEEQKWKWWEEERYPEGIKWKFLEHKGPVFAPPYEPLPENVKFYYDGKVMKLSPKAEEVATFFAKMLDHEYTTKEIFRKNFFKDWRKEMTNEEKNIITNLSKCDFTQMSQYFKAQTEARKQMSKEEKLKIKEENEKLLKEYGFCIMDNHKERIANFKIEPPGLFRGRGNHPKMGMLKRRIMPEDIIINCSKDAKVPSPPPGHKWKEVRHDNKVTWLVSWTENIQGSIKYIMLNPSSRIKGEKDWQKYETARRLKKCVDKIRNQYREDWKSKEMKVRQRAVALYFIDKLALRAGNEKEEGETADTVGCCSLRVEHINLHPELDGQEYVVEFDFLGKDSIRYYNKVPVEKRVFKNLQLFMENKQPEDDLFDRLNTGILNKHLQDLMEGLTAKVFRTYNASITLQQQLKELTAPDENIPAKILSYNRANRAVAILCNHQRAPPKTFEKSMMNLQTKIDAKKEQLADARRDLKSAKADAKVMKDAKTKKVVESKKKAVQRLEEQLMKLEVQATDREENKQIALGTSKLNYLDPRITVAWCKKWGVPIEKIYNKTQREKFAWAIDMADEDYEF

T-24 = experiment: Antiproliferative activity against human T24 cells assessed as cell growth inhibition by MTT assay; type: functional, cell-based
Homo sapiens [4] = organism: Homo sapiens; experiment: Binding affinity to pBR322 DNA (unknown origin) assessed as DNA intercalation at 20 to 100 uM by electrophoresis assay; details: dose 20-100 µM
MGC-803 [5] = experiment: Toxicity in nude mouse xenografted with human MGC-803 cells assessed as morphological changes in liver at 8 mg/kg, ip administrated every other day for 21 days; type: functional, organism-based; details: time 21.0 day
MGC-803 [6] = experiment: Antitumor activity against human MGC-803 cells xenografted in nude mouse assessed as reduction in tumor weight at 4 mg/kg, ip administrated every other day for 21 days relative to control; type: functional; design: scale not given: the % may be the effect or the level left; details: time 21 day
MGC-803 [7] = experiment: Antitumor activity against human MGC-803 cells xenografted in nude mouse assessed as reduction in tumor volume growth rate at 4 mg/kg, ip administrated every other day for 21 days relative to control; type: functional; design: scale not given: the % may be the effect or the level left; details: time 21 day

SMILES: CN1CCN(c2c([N+](=O)[O-])cc3c4c(cccc24)C(=O)N(CCNCCN2C(=O)c4cccc5c(N6CCN(C)CC6)c([N+](=O)[O-])cc(c45)C2=O)C3=O)CC1
- IC50 (CNE-2): 0.34 µM
- Activity (Homo sapiens [1]): Active
- IC50 (A2780): 0.42 µM
- IC50 (MGC-803 [2]): 2.05 µM
- inhibition [3]: inactive
- IC50 (T-24): 0.65 µM
- Activity (Homo sapiens [4]): Active

SMILES: CN(C)CCN1C(=O)c2cccc3cc(N)cc(c23)C1=O [AMONAFIDE]
- IC50 (CNE-2): 8.65 µM
- IC50 (A2780): 11.7 µM
- IC50 (MGC-803 [2]): 5.25 µM
- IC50 (T-24): 7.23 µM

SMILES: O=C1c2cccc3c(N4CCCCC4)c([N+](=O)[O-])cc(c23)C(=O)N1CCNCCN1C(=O)c2cccc3c(N4CCCCC4)c([N+](=O)[O-])cc(c23)C1=O
- IC50 (CNE-2): > 50 µM
- IC50 (A2780): > 50 µM
- IC50 (MGC-803 [2]): > 50 µM
- IC50 (T-24): > 50 µM

SMILES: O=C1c2cccc3c(N4CCOCC4)c([N+](=O)[O-])cc(c23)C(=O)N1CCO
- IC50 (CNE-2): 16.4 µM
- IC50 (A2780): 22.8 µM
- IC50 (MGC-803 [2]): 11.8 µM
- IC50 (T-24): 9.34 µM

SMILES: O=C1c2cccc3c(N4CCOCC4)c([N+](=O)[O-])cc(c23)C(=O)N1CCc1ccc2c(c1)OCO2
- IC50 (CNE-2): > 50 µM
- IC50 (A2780): 28.4 µM
- IC50 (MGC-803 [2]): 23.1 µM
- IC50 (T-24): 23.6 µM

SMILES: CC(C)(C)OC(=O)N1CCN(c2c([N+](=O)[O-])cc3c4c(cccc24)C(=O)N(CCNCCN2C(=O)c4cccc5c(N6CCN(C(=O)OC(C)(C)C)CC6)c([N+](=O)[O-])cc(c45)C2=O)C3=O)CC1
- IC50 (CNE-2): > 50 µM
- IC50 (A2780): > 50 µM
- IC50 (MGC-803 [2]): > 50 µM
- IC50 (T-24): > 50 µM

SMILES: CN(C)CCN1C(=O)c2cccc3cc([N+](=O)[O-])cc(c23)C1=O [MITONAFIDE]
- IC50 (CNE-2): 3.42 µM
- Activity (MGC-803 [5]): Toxic
- IC50 (A2780): 5.22 µM
- Activity (MGC-803 [6]): 34.2%
- IC50 (MGC-803 [2]): 3.32 µM
- IC50 (T-24): 3.25 µM
- Activity (MGC-803 [7]): 54.2%

SMILES: O=C1c2cccc3cc([N+](=O)[O-])cc(c23)C(=O)N1CCNCCN1C(=O)c2cccc3cc([N+](=O)[O-])cc(c23)C1=O
- IC50 (CNE-2): 4.51 µM
- Activity (Homo sapiens [1]): inactive
- IC50 (A2780): 2.79 µM
- IC50 (MGC-803 [2]): 14.6 µM
- inhibition [3]: inactive
- IC50 (T-24): 3.45 µM
- Activity (Homo sapiens [4]): inactive

SMILES: O=C1c2cccc3c(N4CCC(N5CCCCC5)CC4)c([N+](=O)[O-])cc(c23)C(=O)N1CCNCCN1C(=O)c2cccc3c(N4CCC(N5CCCCC5)CC4)c([N+](=O)[O-])cc(c23)C1=O
- IC50 (CNE-2): 9.25 µM
- IC50 (A2780): > 50 µM
- IC50 (MGC-803 [2]): > 50 µM
- IC50 (T-24): 14.8 µM
